Values quoted from earlier work as cited in patent publication US4130645A (priority 1978, dated 1978).

Tests used:
crops = conditions: in vivo; cited from earlier work
groundsel and chickweed = conditions: in vivo; cited from earlier work

In the case of `O=C(O)C1(O)c2ccccc2-c2ccc(Cl)cc21` (stereo not drawn) [2-chloro-9-fluorenol-9-carboxylic acid], the selectivity (crops) is given as “very little selectivity”, the “susceptibility of most crops examined” value (crops) is given as “susceptible” and the weed control (groundsel and chickweed) is given as “weed control is achieved”.
